According to PubChem BioAssay (NCI):
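Briefly, cells in 96-well plates were exposed to five compound concentrations for 48 h, and endpoints were estimated by linear interpolation. The concentration for 50% growth inhibition is given as GI50. TGI: total growth inhibition.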

Legend:
Assay in all cases: inhibition of tumour cell growth, NCI panel, 48 h
SR leukemia = system: SR leukemia
HOP-62 NSCLC = system: HOP-62 NSCLC
U251 CNS = system: U251 CNS
RPMI-8226 leukemia = system: RPMI-8226 leukemia
SF-539 CNS = system: SF-539 CNS
ACHN renal = system: ACHN renal
SK-OV-3 ovarian = system: SK-OV-3 ovarian
NCI-H23 lung = system: NCI-H23 lung
HCT-116 colon = system: HCT-116 colon
BT-549 breast = system: BT-549 breast

SMILES	TGI (SR leukemia) [µM]	TGI (HOP-62 NSCLC) [µM]	TGI (U251 CNS) [µM]	TGI (RPMI-8226 leukemia) [µM]	TGI (SF-539 CNS) [µM]	TGI (ACHN renal) [µM]	TGI (SK-OV-3 ovarian) [µM]	TGI (NCI-H23 lung) [µM]	TGI (HCT-116 colon) [µM]	GI50 (HOP-62 NSCLC) [µM]	GI50 (U251 CNS) [µM]	GI50 (BT-549 breast) [µM]	TGI (BT-549 breast) [µM]	GI50 (HCT-116 colon) [µM]	GI50 (RPMI-8226 leukemia) [µM]	GI50 (SF-539 CNS) [µM]	GI50 (ACHN renal) [µM]	GI50 (SK-OV-3 ovarian) [µM]	GI50 (NCI-H23 lung) [µM]
COc1ccc(OC(C)C(=O)O)c2c(=O)ccccc12 (centres undefined)	> 100	> 100	> 100	> 100	> 100	> 100	> 100	> 100											
O/N=C/c1ccc(O)c(O)c1	> 100	> 100	> 100		> 100	> 100	> 100	> 100	> 100										
CC1SC(c2ccc(Cl)cc2Cl)N(NC(=O)C(O)c2ccccc2)C1=O (centres undefined)		> 100	> 100	> 100	> 100	> 100	> 100	> 100	> 100	> 100	61.4	> 100	> 100	62	38.9	> 100	48.4	> 100	64.1
CC(=O)[CH-]C(=O)c1ccccc1.CC(=O)[CH-]C(=O)c1ccccc1.[O-]c1ccc2c(c1)OCO2.[O-]c1ccc2c(c1)OCO2.[Ti+4]		93.8	> 100	50.9	> 100	> 100	> 100	64.4	> 100	20.4	22.2			37	18.3	28.4	31.6	30.1	22.4
CCC(CO)Nc1nc2c(c(=O)n(C)c(=O)n2C)n1CCO (centres undefined)	> 100		> 100	> 100	> 100	> 100	> 100	> 100	> 100										
Nc1ccc(/C=C/c2ccc3cccnc3c2)cc1	> 100	> 100	> 100	> 100	> 100	> 100	> 100	> 100	> 100										
O=C1Nc2cc(F)ccc2C1=O		> 100	> 100	> 100	> 100	> 100	> 100	> 100											
CC(=O)Oc1ccc2c(c1)C(=O)c1nc(C)c(C)nc1C2=O	> 89	> 100	> 100	> 100	55.4	> 100	> 100	> 100	> 100										
CCCCN(CCCC)CC(C(C)=O)C(c1ccccc1)c1c(O)c2ccccc2oc1=O (centres undefined)	> 100	> 100	> 100	> 100	> 100	> 100	> 100	> 100	> 100										
C1=CCCC=CCC1.C[PH+](C)C.C[PH+](C)C.C[PH+](C)C.[Cl-].[Ir]		> 100	> 100		> 100	> 100	> 100	> 100	> 100	> 100	46.2			42.9		> 100	> 100	> 100	> 100
O=C1N=C(Nc2nc(-c3csc(NC4=NC(=O)/C(=C\c5ccccc5)S4)n3)cs2)S/C1=C/c1ccccc1		46.3	> 50	3.35	39.7	46.3		> 50	29	7.97	6.34			3.5	0.629	13.6	12.2		17.6
O=c1c2cc3ccccc3n2c(=O)c2cc3ccccc3n12	> 100		> 100	> 100	> 100	> 100		> 100	> 100										
c1ccc(OC2=NC3=S(S2)SC(Oc2ccccc2)=N3)cc1		67.1	26.8	24.8	54.6	42.5	65.2	49	33.4										
CCn1c2ccccc2c2cc(C(=O)c3ccc(C)c4ccccc34)ccc21		> 100	1.52	> 100	0.802	> 100	> 100		14.5	0.476	0.278	0.574	5.34	0.344	0.389	0.255	0.729	0.553	
COc1cc2cnc3c4cc(OCc5ccccc5)ccc4ccc3c2cc1OC	27.1	76.5	> 100	20.2	> 100	> 100	56.8	75.7	> 100										
O=C1NC2C(O)CCCCC2C12CCCCC2 (centres undefined)		> 100	> 100	> 100	> 100	> 100	> 100	> 100	> 100										
C[CH2][Sn]([CH2]C)([O]C(=O)c1ccc(F)cc1)[O]C(=O)c1ccc(F)cc1		> 100	42	53.9	30.1	32.4	> 100	32.8	> 55.8	62.6	19			33	20.1	16.4	17.8	> 100	17.3
Nc1c2ccccc2nc2c(C(=O)Nc3ccc(S(N)(=O)=O)cc3)cccc12		> 100	> 100	> 100	> 100	> 100	> 100	> 100	> 100										
C[C@H]1C=C2C(=O)O[C@H]3CC[C@@H](C1)[C@@]23O	> 100		19.5	> 100	4.25	17.2	22.4	9.53	9.24										
CC1c2[nH]c3ccccc3c2CCN1O (centres undefined)			> 100	> 100	> 100	> 100	> 100	> 100	> 100										
COC(=O)N/N=C(\C)CC(=O)Nc1ccc(Cl)cc1		> 100	> 100	> 100	> 100		> 100	> 100	> 100										
